Laboratory results from patent US5985603A, “P2x receptor DNA and protein sequence” (Glaxo Group Limited, priority 1994, dated 1999).
Structures can show the parent of a compound that is named as a salt. Where two headings read alike, the source gives them in different places. One block for each compound: values may come before it.

Key:
Assay type in all cases: cell-based
hP2X [1] = biological target: T1, hP2X (Homo sapiens, UniProt P51575); assay: inward currents evoked by purinoceptor agonists in Xenopus oocytes expressing hP2X; details: for relative potency: relative to ATP, from EEC50; for full agonist activity: concentration-response curves; for Emax at 100 µM: read-out: small inward current, % of the response to 100 μM ATP; for Emax: read-out: maximal response, % of the maximal ATP response
T1 construct: expressed in transfected cells; host or cells: Xenopus oocytes injected with in vitro transcribed RNA
T1 sequence (P51575 1-399): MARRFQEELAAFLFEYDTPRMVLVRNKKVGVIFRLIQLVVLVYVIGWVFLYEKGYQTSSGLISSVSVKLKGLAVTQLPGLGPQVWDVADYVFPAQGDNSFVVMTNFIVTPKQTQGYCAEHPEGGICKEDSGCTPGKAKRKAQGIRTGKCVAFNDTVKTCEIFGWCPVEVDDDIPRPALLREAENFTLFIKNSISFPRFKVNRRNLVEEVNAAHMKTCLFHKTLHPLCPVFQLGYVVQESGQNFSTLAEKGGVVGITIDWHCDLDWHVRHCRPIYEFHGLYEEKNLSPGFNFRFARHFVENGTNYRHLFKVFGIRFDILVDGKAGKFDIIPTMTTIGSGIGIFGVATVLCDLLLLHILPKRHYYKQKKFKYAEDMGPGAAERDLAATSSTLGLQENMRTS
Procedure: (§1) Human urinary bladder P2X cDNA, subcloned into the pBKCMV expression vector, was linearized with Notl, and transcribed in vitro with T3 polymerase in the presence of cap analogue m7G(5')ppp(5')G. Defolliculated Xenopus oocytes (Bertrand et al, Electrophysiology of neuronal nicotinic acetylcholine receptors expressed in Xenopus oocytes following nuclear injection of genes or cDNAs Meth Neurosci 4: 174-193 (1991)) were injected with 50 ng of human P2X in vitro transcribed RNA, and incubated at 18° C. for 2-6 days in the ND96 solution (mM): NaCl96, KCl2, MgCl2 1, CaCl2 2, sodium pyruvate 5, HEPES 5, ph 7.6-7.5, penicillin (10 U/ml), and streptomycin (10 μg/ml).
Oocytes were placed in a 1 ml chamber and superfused at 2-3 ml/min with ND96 solution with 0.1 mM BaCl2 replacing the 2 mM CaCl2 to prevent activation of endogenous calcium-activated chloride currents (Barish, A transient calcium-dependent chloride current in the immature Xenopus oocytes J Physiol 342: 309-325 (1983)). Currents were measured using a two-electrode voltage-clamp amplifier (Geneclamp Axon Instruments)at a holding potential of -60 mV. Microelectrodes were filled with 3 M KCl (0.5-2 M.OMEGA.). Data were collected using PClamp software (Axon Instruments). […] Antagonists were applied both in the superfusate and together with ATP in the U-tube solution.
Concentration response curves for purinoceptor agonists were fitted with a Hill slope of 1. […] Data are presented throughout as mean ± SEM for a given number of oocytes.

PC12 P2X receptor = biological target: T2, PC12 P2X receptor (Rattus norvegicus, UniProt P49653); assay: functional properties of cloned P2X receptors (electrical recordings): PC12
T2 construct: host or cells: HEK293 cells (oocytes are also named for the functional characterisation of clone 3)
T2 sequence (P49653 1-472): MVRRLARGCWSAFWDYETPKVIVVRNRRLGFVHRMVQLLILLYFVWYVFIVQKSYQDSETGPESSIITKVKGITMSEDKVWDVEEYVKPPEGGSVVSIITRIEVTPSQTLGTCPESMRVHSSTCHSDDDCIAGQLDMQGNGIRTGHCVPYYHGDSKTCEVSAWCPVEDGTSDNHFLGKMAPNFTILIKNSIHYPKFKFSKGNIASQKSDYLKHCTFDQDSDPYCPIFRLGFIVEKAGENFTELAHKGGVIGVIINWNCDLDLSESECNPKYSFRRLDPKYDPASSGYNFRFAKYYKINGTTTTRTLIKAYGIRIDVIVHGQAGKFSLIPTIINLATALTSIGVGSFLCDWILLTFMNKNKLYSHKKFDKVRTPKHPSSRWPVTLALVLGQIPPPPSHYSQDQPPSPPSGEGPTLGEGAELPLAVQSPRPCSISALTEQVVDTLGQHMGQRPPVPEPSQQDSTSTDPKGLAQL
Procedure: (§2) HEK 293 cells were transfected by the lipofectin method (Felgner et al., Proc. Nat'l. Acad. Sci. USA 84 7413-7417 (1987)) with P2X -plasmid. DNA concentration used was 1 mg/2 ml medium placed into a 35 mm petri dish containing four 11 mm diameter coverslips on which HEK cells were placed at 10,000 cells per coverslip. […] Currents were recorded from HEK 293 cells using whole-cell recording methods and the AXOPATCH™ 200 amplifier (Axon Instruments); patch pipettes (5 M.OMEGA.) contained (mM) Cs or K aspartate 140, NaCl 5, EGTA 11, HEPES 5. The external solution was (mM) NaCl 150, KCl2, CaCl2 2, MgCl2 1, HEPES 5 and glucose 11; the pH and osmolarity of both solutions were maintained at 7.3 and 305 mosmol/l respectively. All recordings performed at room temperature. Data acquisition and analysis were performed using pCLAMP™ and AXOGRAPH™ software (Axon Instruments). […] The pH and osmolarity of the solutions were 7.4 and 295 mosmol/l respectively. For single channel measurements, a […]™ 500 amplifier and outside-out recording methods were used (Adelman et al., Neuron 9 209-216 (1992)). Wax-coated patch pipettes (5-10 M.OMEGA.) contained (mM) K-gluconate 115, HEPES 5, BAPTA 5 and MgCl2 0.5, external solution was 96 mM NaCl, 2 mM KCl, 1.8 mM CaCl2, 1 mM MgCl2, 5 mM Hepes pH 7.6, and 5 mM sodium pyruvate.
(§3) The functional characterisation of the clone illustrated in FIG. 2 (referred to herein as clone 3) was carried out by electrical recordings from transfected HEK293 cells and from oocytes injected with the in vitro transcribed RNA, as described in Example 4 for the rat vas deferens P2X receptor. Table A summarizes the main properties of clone 3 as compared to those of rat vas/human bladder cDNA clone, and the PC12 cDNA clone (provided by David Julius and Tony Brake of the University of California at San Francisco).

hP2X [2] = biological target: T1, hP2X; assay: antagonist inhibition of ATP-evoked currents in Xenopus oocytes expressing hP2X; details: for inhibition of inward currents evoked by 10 μM ATP: 10 μM ATP (approximately EC90); for reversibility of antagonism on washout: PPADS, P5P
Procedure: as §1
Oocytes were placed in a 1 ml chamber and superfused at 2-3 ml/min with ND96 solution with 0.1 mM BaCl2 replacing the 2 mM CaCl2 to prevent activation of endogenous calcium-activated chloride currents (Barish, A transient calcium-dependent chloride current in the immature Xenopus oocytes J Physiol 342: 309-325 (1983)). Currents were measured using a two-electrode voltage-clamp amplifier (Geneclamp Axon Instruments)at a holding potential of -60 mV. Microelectrodes were filled with 3 M KCl (0.5-2 M.OMEGA.). Data were collected using PClamp software (Axon Instruments). ATP and other purinoceptor agonists were applied by a U-tube perfusion system (Fenwick et al, A patch clamp study of bovine chromaffin cells and their sensitivity to acetylcholine J Physiol 331: 577-597 (1982)) placed close (200-500 μm) to the oocyte. […] Concentration response relationships to ATP and its analogs were determined by measuring the peak amplitude of responses to a 5 s application of agonist applied at 10 min intervals. Responses to agonists were normalized in each oocyte to the peak response evoked by 100 μM ATP; 100 μM ATP was usually applied at the beginning and at the end of an experiment to determine if there was any rundown of the response. […] Antagonists were applied both in the superfusate and together with ATP in the U-tube solution. Antagonists were superfused for 5-10 min prior to the application of ATP.
Concentration response curves for purinoceptor agonists were fitted with a Hill slope of 1. Equi-effective concentrations i.e. concentration of agonist, giving 50% of the response to 100 μM ATP, (EEC50) were determined from individual concentration response curves. […] Data are presented throughout as mean ± SEM for a given number of oocytes.

[3] = biological target: T3, rat superior cervical ganglion P2X receptor (clone 3) (Rattus norvegicus, UniProt P51577); assay: functional properties of cloned P2X receptors (electrical recordings): clone 3; details: for antagonist profile, clone 3 (block): Table A, concentration not given; for sensitivity of ATP-activated currents to antagonism, compared with rat vas deferens/human bladder and PC12 forms: clone 3 (FIG. 15)
T3 construct: The insert appeared to be a full length cDNA; expressed in transfected cells; host or cells: HEK293 cells transfected with pcDNA3 construct p464 (also oocytes injected with in vitro transcribed RNA)
T3 sequence (P51577 1-388): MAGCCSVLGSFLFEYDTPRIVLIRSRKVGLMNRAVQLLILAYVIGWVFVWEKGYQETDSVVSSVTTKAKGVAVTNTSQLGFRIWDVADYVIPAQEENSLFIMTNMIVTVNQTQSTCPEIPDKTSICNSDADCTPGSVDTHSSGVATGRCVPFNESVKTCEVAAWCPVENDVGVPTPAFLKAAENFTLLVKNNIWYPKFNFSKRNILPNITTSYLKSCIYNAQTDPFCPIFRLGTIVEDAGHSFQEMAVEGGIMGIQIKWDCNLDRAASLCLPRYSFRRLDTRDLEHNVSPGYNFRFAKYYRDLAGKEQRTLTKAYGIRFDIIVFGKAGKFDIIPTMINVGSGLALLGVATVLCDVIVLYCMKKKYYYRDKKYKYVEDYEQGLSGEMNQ
Procedure: as §2, §3

Compound: Nc1nc(Cl)nc2c1ncn2[C@@H]1O[C@H](COP(=O)(O)OP(=O)(O)OP(=O)(O)O)[C@@H](O)[C@H]1O [2chloroATP, 2-chloro-ATP tetra sodium salt]
EC50 (hP2X [1]): 0.76 ± 0.1 µM | comparison of concentration-effect curves (hP2X [1]; ATP, 2MeSATP and 2-chloro-ATP): superimposable | full agonist activity (hP2X [1]): full agonists | relative potency (hP2X [1]): 1.08

Compound: Nc1ncnc2c1ncn2[C@@H]1O[C@H](COP(=O)([O-])OP(=O)([O-])[O-])[C@@H](O)[C@H]1O.[Na+].[Na+].[Na+] [ADP, adenosine 5'-diphosphate sodium salt]
EC50 (hP2X [1]): 34.3 ± 16 µM | full agonist activity (hP2X [1]): full agonists | relative potency (hP2X [1]): 0.024

Compound: Nc1ncnc2c1ncn2[C@@H]1O[C@H](COP(=O)(O)O)[C@@H](O)[C@H]1O [AMP, adenosine 5'-monophosphate sodium salt]
Emax at 100 µM (hP2X [1]): 6.08 ± 2%

Compound: Nc1ncnc2c1ncn2[C@@H]1O[C@H](COP(=O)(O)OP(=O)(O)OP(O)(O)=S)[C@@H](O)[C@H]1O [ATP-γ-S, adenosine 5'-O-(-3-thiophosphate) tetralithium salt]
EC50 (hP2X [1]): 10.6 ± 3.8 µM | Emax (hP2X [1]): ~65% | relative potency (hP2X [1]): 0.077

Compound: Nc1ncnc2c1ncn2[C@@H]1O[C@H](CO)[C@@H](O)[C@H]1O [Adenosine]
Emax at 100 µM (hP2X [1]): 2.3 ± 1.5%

Compound: O=c1ccn([C@@H]2O[C@H](COP(=O)(O)OP(=O)(O)OP(=O)(O)O)[C@@H](O)[C@H]2O)c(=O)[nH]1 [UTP, uridine 5'-triphosphate sodium salt]
Emax at 100 µM (hP2X [1]): 3.7 ± 1.8%

Compound: Nc1ncnc2c1ncn2[C@@H]1O[C@H](COP(=O)(O)OP(=O)(O)CP(=O)(O)O)[C@@H](O)[C@H]1O [d,β,γ-meATP, β,γ-methylene-D-ATP sodium salt]
EC50 (hP2X [1]): 24.1 ± 1.6 µM | relative potency (hP2X [1]): 0.034

Now from value to compound, other results behind:

maximal response, % of the maximal ATP response (hP2X [1]): about 65% | EC50 (hP2X [1]; read-out: EEC50: equieffective concentration producing an inward current equivalent to 50% of the peak response to 100 μM ATP, Hill slope of 1, mean ± SEM, n = 3-4, ATP value from mean data from all experiments): 4.2 ± 2.2 µM | relative potency (hP2X [1]): 0.20
Compound: 2'-3'-O-(4-benzoylbenzol)ATP tetraethylamonium salt [BzATP]

EC50 (hP2X [1]): 2 ± 0.2 µM | Emax (hP2X [1]): ~65% | relative potency (hP2X [1]): 0.41
Compound: Nc1ncnc2c1ncn2[C@@H]1O[C@H](COP(=O)(O)OP(=O)(O)OP(=O)(O)OP(=O)(O)OP(=O)(O)OC[C@H]2O[C@@H](n3cnc4c(N)ncnc43)[C@H](O)[C@@H]2O)[C@@H](O)[C@H]1O [AP5A, p1, p5-di [adenosine-5'] pentaphosphate trilithium salt]

IC50 (PC12 P2X receptor): > 100 µM | IC50 (hP2X [2]): ~1 µM | reversibility of inhibitory effects on washout (hP2X [2]; DIDS 100 μM): very slow to reverse on washout
Compound: O=S(=O)(O)c1cc(N=C=S)ccc1C=Cc1ccc(N=C=S)cc1S(=O)(=O)O [DIDS, 4,4'-diisothiocyanatostilbene 2,2'-disulphonic acid, disodium salt]
inhibition of inward currents evoked by 10 μM ATP (hP2X [2]): inhibited inward currents evoked by 10 μM ATP

antagonist profile, clone 3 (block) [3]: < 40% | sensitivity of ATP-activated currents to antagonism, compared with rat vas deferens/human bladder and PC12 forms [3]: much less sensitive to antagonism | IC50 (hP2X [2]): ~20 µM | reversibility of antagonism on washout (hP2X [2]): readily reversible on washout
Compound: Cc1ncc(COP(=O)(O)O)c(C=O)c1O [P5 P, Pyridoxal 5-phosphate monohydrate]
inhibition of inward currents evoked by 10 μM ATP (hP2X [2]): inhibited inward currents evoked by 10 μM ATP

antagonist profile, clone 3 (block) [3]: < 30% | sensitivity of ATP-activated currents to antagonism, compared with rat vas deferens/human bladder and PC12 forms [3]: much less sensitive to antagonism | IC50 (hP2X [2]): ~1 µM | reversibility of antagonism on washout (hP2X [2]): readily reversible on washout
Compound: Cc1nc(N=Nc2ccc(S(=O)(=O)O)cc2S(=O)(=O)O)c(COP(=O)(O)O)c(C=O)c1O [PPADS, pyridoxal phosphate 6-azophenyl 2',4'-disulphonic acid]
inhibition of inward currents evoked by 10 μM ATP (hP2X [2]): inhibited inward currents evoked by 10 μM ATP
